Reference: patent EP4495227A1, “CO-CULTURES OF ORGANOIDS AND STROMAL CELLS” (HUB Organoids IP B.V., priority 2023, dated 2025)

Assays:
[1] = molecular target: type I nodal receptor ALK7; conditions: Tocris catalog description; cited from earlier work
[2] = molecular target: type I activin/nodal receptor ALK4; conditions: Tocris catalog description; cited from earlier work
[3] = test system: ALK-1, -2, -3, -6 and MAPK activity; conditions: Tocris catalog description; cited from earlier work
[4] = test system: caspase 3/7 activity; assay: Caspase-Glo assay of apoptosis in organoid-fibroblast co-cultures challenged with TNF and IFNγ; format: cell-based, human; conditions: 10 µM tofacitinib; upon exposure to inflammatory cytokines; Figure 5B; measured in accordance with Example 6
Method: (§1) In Examples 4-9, fibroblast cultures, organoid cultures, and co-cultures of the fibroblasts and organoids, were prepared according to Examples 1-2. OSM (1 ng/mL) and IL-1β (1 ng/mL) were added to the co-cultures according to Example 3 where "proinflammatory stimuli" or "proinflammatory stimulation" are specified in Examples 4-9. Co-cultures were then incubated on plates for 72 hours at 37°C and 5% CO2 prior to cytokine or caspase analysis, or for 96 hours at 37°C and 5% CO2 prior to imaging analysis.
72 hours after organoids and fibroblasts were combined in co-culture, apoptosis in co-culture was triggered using inflammatory stimuli (in the form of damage-inducing cytokines), and measured 24 hours later, in co-cultures prepared using proinflammatory stimuli and in co-cultures not prepared using proinflammatory stimuli.
Stock solutions of TNF and IFNγ were diluted 1:1 with 0.6% Tween in PBS, and were added to the co-cultures at concentrations of 15 ng/mL and 15 ng/mL respectively. Plates were then incubated for 24 hours.
Apoptosis was assessed using a Caspase-Glo assay (e.g. Promega) to determine relative caspase 3/7 activity. Briefly, 95 µL of room-temperature caspase reagent was added to each plate. Plates were then shaken for 1 minute before incubation in the dark at room temperature for 30 minutes. […]

[5] = test system: co-cultures of the fibroblasts and organoids; assay: Imaging of organoid morphology and area in organoid-fibroblast co-cultures (Calcein AM stain); format: cell-based, human; conditions: 10 µM tofacitinib; Figure 5A; measured in accordance with Example 4
Method: as §1
Organoids in co-culture were first stained with Calcein AM. 48 hours after the organoids and fibroblasts were combined in co-culture, 50 µL DMSO was added to a vial of Calcein AM and mixed. 88 µL of the mixture was added to 4,312 µL of Ad-DF+++ media. 10 µL of the final Calcein AM mixture was added to co-cultures before 5-10 seconds of shaking in a Tecan D300. Plates were then incubated for 2 hours at 37°C and 5% CO2. Imaging were then performed to assess organoid morphology.

| Structure (SMILES) | IC50 [1] [nM] | IC50 [2] [nM] | inhibition of ALK-1, -2, -3, -6 and MAPK activity [3] | caspase activity [4] | change in morphology [5] |
| --- | --- | --- | --- | --- | --- |
| Cc1cccc(-c2nn(C(=S)Nc3ccccc3)cc2-c2ccnc3ccccc23)n1 [A83-01] | 7.5 | 45 | only weakly inhibits |  |  |
| C[C@@H]1CCN(C(=O)CC#N)C[C@@H]1N(C)c1ncnc2[nH]ccc12 [tofacitinib] |  |  |  | greatly diminishes | small change |
